Measured values from patent US20030220280A1, “Schwann cell bridge implants and phosphodiesterase inhibitors to stimulate CNS nerve regeneration” (priority 2002, published 2003).

How the values were obtained:
Assay type in all cases: in vivo, rat
[1] = tested on: rats with a moderate contusion injury at thoracic cord segment 8; assay: Gridwalk test for fine locomotor performance after moderate contusion injury; conditions: FIG. 4; 8 weeks after moderate contusion; 1 m gridwalk, maximum 20 errors
Excerpt: FIG. 4 compares footfall errors in a gridwalking analysis 8 weeks after a moderate contusion injury by weight drop (NYU impactor, 12.5 mm height) followed by db-cAMP administration plus Schwann cell transplantation with or without rolipram. Each treatment used 4 injection sites, 2-3 mm rostral and caudal to the injury site and on either side of the midline. A. Non-injured control; B. 1 week post-injury 2×10^6 Schwann cells injected into the injury site with saline; C. 1 week post-injury 2×10^6 Schwann cells injected with 4×0.2 μL×1 mM db-cAMP; D. 1 week post-injury 2×10^6 Schwann cells with 4×0.2 μL×50 mM db-cAMP; E. 1 day post-injury 2×10^6 Schwann cells with 4×0.2 μL×50 mM db-cAMP; F. animals received rolipram by minipump starting within 30 minutes of the injury (0.07 μmol/kg/hr for 2 weeks after injury) and 1 week later 2×10^6 Schwann cells with 4×0.2 μL×50 mM db-cAMP.
(§1) Adult rats (Fischer rats, Charles River Laboratories, 3-5 months old) were injured in the thoracic level of the spinal cord with the NYU weight drop device (NYU impactor) as described in Gruner (1992), and rolipram (0.07 μmol/kg/hr) was administered for two weeks. […]
The number of footfall errors that the animal makes is recorded (maximum is 20, 1 per leg per space between each bar) with higher scores indicating a poor ability to perform the tasks.

[2] = tested on: rats with a complete spinal cord transection at thoracic cord segment 8; assay: BBB test of hindlimb locomotion after complete spinal cord transection with Schwann cell bridge; conditions: rolipram by minipump 0.07 μmol/kg/hr for two weeks, assessed weekly
Excerpt: Schwann cells were purified in culture from adult rat sciatic nerve (according to the methods described by Morrissey, Kleitman and Bunge (1991)). The purity of the Schwann cells used for transplantation was between 95 and 98%.
For Schwann cell bridges, cells were suspended in matrigel/DMEM (30:70) and drawn into 3-8 mm long polymer guidance channels at a density of 120×10^6 cells/ml, as described by Xu et al. (1997). During implantation into adult rats (Fischer rats, Charles River Laboratories, 3-5 months old), each cut stump of the severed spinal cord was inserted 1 mm into the channel. Sometimes the Schwann cell cable is transplanted without the guidance channel. Either method, with or without the channel, is readily accomplished by persons who have performed this procedure a number of times and so have gained adequate expertise to accomplish this.
Spinal cords of adult rats were completely transected by surgery at the T8 cord level and the next caudal segment was removed. At the time of transection, a Schwann cell bridge was implanted at the injury site, 50 mM db-cAMP was injected (0.2 μl) or infused (5 μl) into the proximal and distal stump of the lesion and rolipram was delivered subcutaneously via minipump at 0.07 μmol/kg/hr for two weeks. […] Animals were assessed on a weekly basis for hindlimb locomotion, a measure of motor recovery, using the BBB test. […]

[3] = tested on: rats with a moderate contusion injury at thoracic cord segment 8; assay: Footprint analysis after moderate contusion injury; conditions: FIGS. 5-7; 8 weeks after moderate contusion; conditioned locomotion
Protocol: FIG. 5 compares stride length in a footprint analysis conducted 8 weeks after a moderate contusion injury by weight drop followed by db-cAMP administration plus Schwann cell transplantation with or without rolipram. Each treatment used 4 injection sites, 2-3 mm rostral and caudal to the injury site and on either side of the midline. A. Non-injured control; B. 1 week post-injury 2×10^6 Schwann cells injected into the injury site with saline; C. […]
FIGS. 5, 6 and 7 illustrate the locomotor patterns of injured rats that received various treatments, tested by inking both the fore- and hind-paws (different colors), allowing them to walk 1 m on an enclosed, flat runway and then analyzing the footprints. Recorded parameters from 8 consecutive steps included the animal's stride length (measured between the central pads of two consecutive prints on each side of the animal), base of support (determined by measuring the distance between the central pads of the hindpaws), and hindfoot outward rotation. […]

[4] = tested on: rats with a moderate contusion injury at thoracic cord segment 8; assay: BBB test of hindlimb locomotion after moderate contusion injury with Schwann cell injection; conditions: FIG. 3, tested weekly
Protocol: FIG. 3 compares the effects over time of db-cAMP injection and rolipram on BBB scores of rats receiving Schwann cell transplantation after receiving moderate contusion injury to the spinal cord by weight drop (NYU impactor, 12.5 mm height). Each treatment used 4 injection sites, 2-3 mm rostral and caudal to the injury site and on either side of the midline. Diamonds: 2×10^6 Schwann cells were injected into the injury site with saline injection one week post-injury; squares: 2×10^6 Schwann cells with 0.2 μL×1 mM db-cAMP (four injections) one week postinjury; triangles: 2×10^6 Schwann cells with 0.2 μL×50 mM db-cAMP (four injections) one week post-injury; crosses: 2×10^6 Schwann cells with 0.2 μL×50 mM […] (four injections) one day post-injury; circles: animals received rolipram by minipump starting within 30 minutes of the injury (0.07 μmol/kg/hr for 2 weeks after injury) and 1 week later Schwann cells with 0.2 μL×50 mM db-cAMP (four injections).
as §1

## CCCC(=O)Nc1ncnc2c1ncn2[C@@H]1O[C@@H]2COP(=O)(O)O[C@H]2[C@H]1OC(=O)CCC [db-cAMP, dibutyryl-cAMP]
[1]
  ability to perform fine motor tasks (footfall errors on gridwalk): exhibited many more errors
[2]; FIG. 1, db-cAMP injected (0.2 μl) into both stumps
  hindlimb locomotion (BBB test): not observed
[2]; FIG. 2, db-cAMP infused (5 μl) into both stumps
  hindlimb locomotion (BBB test): not observed
[3]
  outward foot rotation in footprint analysis: did not exhibit a similar level of recovery
  trunk stability (base of support) in footprint analysis: did not exhibit a similar level of recovery
[4]
  hindlimb locomotion (BBB test): not observed
